# Results published in US5654399A, “Tetrapeptide derivative having antitumor activity” (Teikoku Hormone Mfg. Co., Ltd., priority 1991, dated 1997).
# Tested on: lymphocytic leukemia P388 cells
# Experiment: screening of cytostatic activity using lymphocytic leukemia P388 cells
# Type: cell-based
# Text: The screening of cytostatic activity was made using lymphocytic leukemia P388 cells.
structure (smiles),measurement,value
CC[C@H](C)[C@@H]([C@@H](CC(=O)N1CCC[C@H]1[C@H](OC)[C@@H](C)C(=O)N[C@@H](Cc1ccccc1)c1nccs1)OC)N(C)C(=O)[C@@H](NC(=O)[C@H](C(C)C)N(C)C)C(C)C [Dolastatin 10],ED50,0.7 ng/mL
